Tests used:
DHL-10 cell line = assay: In situ mitochondrial cytochrome c release assay, DHL-10; assay type: cell-based; settings: semi-permeabilized cells, 1 hour; Bax/Bak-deficient cell line; FIG. 3
Description: (§1) The on-target activity of compound 12 was validated. Changes in mitochondrial integrity were observed utilizing anti-cytochrome c conjugated to Alexa488 (BD). When the mitochondria are intact, they retain cytochrome c and have bright, punctate staining with the antibody whereas cells with compromised mitochondrial integrity will lose cytochrome c and will not stain with the antibody. This can be observed by microscopy as well as measured by a shift in fluorescence on the FL1 channel of a flow cytometer.
(§2) The selective response of mitochondria in semi-permeabilized cell lines to the compounds was observed. The assay was adapted from (Campos et al. (2006) Cytometry Part A. 69(A):515-523, which is hereby incorporated by reference in its entirety).
(§3) Suspension cell lines SUDHL6, SUDHL8, and SUDHL10 were grown in RPMI, washed once in 1×PBS and re-suspended at a concentration of 2e6/ml in assay buffer with 0.0025% Digitonin. Assay buffer; 300 mM Trehalose, 10 mM HEPES-KOH pH 7.7, 80 mM KCl, 1 mM EGTA, 1 mM EDTA, 0.1% BSA, 5 mM Succinate. […] Cytochrome c loss was measured by microscopy. At least 100 cells per treatment were counted and scored as positive for cytochrome c loss if they lacked staining. In both methods DMSO was calculated as 0% cytochrome c loss and the Bim response for DHL6 was used to determine 100% cytochrome c loss.

DHL-6 cell line = assay: In situ mitochondrial cytochrome c release assay, DHL-6; assay type: cell-based; settings: semi-permeabilized cells, 1 hour; Bax/Bak-functional cell line; FIG. 3
Description: as §1, §2, §3

Mcl-1 1780 cell line = assay: DAPI fluorescence cell-based cytotoxicity (apoptosis) assay, Mcl-1 1780; parameters: species or system mouse; settings: 1 μM, 500 nM, 250 nM, 125 nM; 24 hours; FIG. 2
Protocol: (§4) The mouse leukemia-derived cell lines Mcl-1-1780 and Bcl-2-1863 (Ryan et al., Proc. Nat. Acad. Sci USA, 107, 12895-12900, which is hereby incorporated by reference in its entirety) were obtained under license from Dana Farber Cancer Institute. Cells were grown in RPMI 1640 medium (GIBCO-BRL) with 2 mM L-glutamine, 4.5 g/L glucose, 1.0 mM sodium pyruvate and 5% fetal bovine serum. Cells were expanded in tissue culture in appropriate media and then sub-cultured into 96-well plates at a seeding density of 20,000 cells per well. After incubation for 24 hours, cells were treated with compounds that are titrated into appropriate medium with FCS. Four concentrations of compound were used: 1 μM, 500 nM, 250 nM, and 125 nM. Assay was run in triplicate for each compound at each concentration and averages were calculated. Cells were treated with compound for 24 hours, then fixed with methanol and stained with the DNA-binding agent DAPI (4′,6-diamidino-2-phenylindole). The cells were then examined by fluorescent microscopy; cells in which caspase 3 and caspase 7 have not been activated will emit at […] when excited by […] light. Caspase-mediated cleavage of nucleosomal proteins causes condensed, pycnotic nuclear morphology that may be measured by cell counting.

DHL-8 cell line = assay: In situ mitochondrial cytochrome c release assay, DHL-8; assay type: cell-based; settings: semi-permeabilized cells, 1 hour; reduced mitochondrial priming; FIG. 3
Description: as §1, §2, §3

Bcl-2 1863 cell line = assay: DAPI fluorescence cell-based cytotoxicity (apoptosis) assay, Bcl-2 1863; parameters: species or system mouse; settings: 1 μM, 500 nM, 250 nM, 125 nM; 24 hours; relative to Mcl-1 1780; FIG. 2
Protocol: as §4

CCN1CCN(C(c2ccc(C(F)(F)F)cc2)c2ccc3cccnc3c2O)CC1 (centres unmarked) [Compound 12, 7-((4-ethylpiperazin-1-yl)(4-(trifluoromethyl)phenyl)methyl)quinolin-8-ol]
Cytochrome c release, DHL-10 (DHL-10 cell line): lack of activity
Cytochrome c release, DHL-6 (DHL-6 cell line): activity
Induction of apoptosis (DAPI nuclear morphology) in Mcl-1 1780 (Mcl-1 1780 cell line): induce apoptosis
Cytochrome c release, DHL-8 (DHL-8 cell line): reduced activity
Induction of apoptosis (DAPI nuclear morphology) in Bcl-2 1863 (Bcl-2 1863 cell line): significantly lesser degree

— patent US20150133450A1, “METHODS AND COMPOSITIONS USEFUL FOR TREATING DISEASES INVOLVING BCL-2 FAMILY PROTEINS WITH QUINOLINE DERIVATIVES” (Eutropics Pharmaceuticals, Inc., priority 2012, published 2015)
